Article PMC10536004, “Gallation and B-Ring Dihydroxylation Increase Green Tea Catechin Residence Time in Plasma by Differentially Affecting Tissue-Specific Trafficking: Compartmental Model of Catechin Kinetics in Healthy Adults” (Nutrients, 2023)
Where two headings read alike, the source gives them in different places. Values belong to the molecule of their own block, whether it stands above or below them.

Key:
[1] = system: pancreatic tumor cells; conditions: cited from earlier work
[2] = system: Caco-2 monolayer; conditions: cited from earlier work
[3] = Compartmental model of catechin kinetics from plasma and urine pharmacokinetic data after ingestion of GTE confection; format: in vivo, healthy adults
Excerpt: Data for the present study were obtained from our prior investigation of the pharmacokinetics of green tea polyphenols in healthy adults. The study protocol was approved by the Biomedical Institutional Review Board at Ohio State University (#2017H0246) and registered at ClinicalTrials.gov (NCT03413735). In brief, 19 healthy adults (10 males and 9 females; 27 ± 2 y; 22 ± 0 kg/m^2) who were normotensive (systolic blood pressure, 112.1 ± 2.3 mmHg and diastolic blood pressure, 72.5 ± 1.6 mmHg) normoglycemic (fasting glucose, 92.3 ± 1.8 mg/dL) and normolipidemic (total cholesterol, 181.1 ± 7.8 mg/dL and triglyceride 61.7 ± 7.5 mg/dL) completed the study in the Columbus, Ohio area. Participants were non-smokers, non-users of dietary supplements, non-regular tea drinkers (<2 cups/wk), consumed <3 alcoholic drinks/d, non-pregnant or non-lactating, not using any medications or antibiotics, and had no history of gastrointestinal disorders or surgeries.
Complete details of the pharmacokinetic study were reported in [24]. In brief, participants abstained from polyphenol-rich foods for 3 d. In the fasting state (10–12 h) on day 4, participants voided their bladder, and a catheter was inserted into the antecubital vein to collect blood samples at baseline (0 h) and at 0.25, 0.5, 1, 2, 3, 5, 8, 10, and 12 h post-ingestion of a confection formulated with catechin-rich GTE. Urine was collected in timed intervals from 0–4, 4–8, 8–12, and 12–24 h (Figure 2). Participants received standardized meals at 4 h (11:00), 6 h (13:00) and 12 h (19:00) following confection ingestion. Snacks (e.g., pretzels, crackers) were also provided between 13:00–19:00. All foods were devoid of polyphenols and provided to participants in a eucaloric manner based on estimated energy requirements using the Harris–Benedict formula [25]. Controlled meals were designed to provide 48–55% of energy from carbohydrates, 15–20% from proteins, and 20–35% from fats. No additional foods or beverages, except water, were consumed by participants during the 24 h trial period.
GTE confections were developed as an alternative delivery system for catechins because Americans prefer catechin-deplete black tea over catechin-rich green tea. Confections were prepared in-house and formulated with 84.5% water, 2% sucrose, 6% gelatin, 0.5% citric acid, 6% lime-flavored gelatin, and 1% decaffeinated GTE powder. Confections were prepared within 24 h of the participants’ pharmacokinetics trial and stored at 4 °C. Each participant ingested 2 confections (each 25 g and ~2.5″ cubed), which contained 0.5 g GTE (Sunphenon 90 LB, Taiyo International, Inc., Minneapolis, MN, USA) to provide 445 mg total catechins (290 mg EGCG, 87 mg EGC, 39 mg EC, 28 mg ECG). The catechin content of all confections was confirmed by HPLC analysis. Based on brewed green tea (250 mL prepared with 2.2 g of dry tea leaves) containing ~180 mg total catechins, GTE at 0.5 g approximates 2.5 cups of green tea.
Biospecimen handling and preservation of catechins concentrations in plasma and urine were described. In brief, venous plasma was collected in heparinized tubes, while urine was collected in sterilized containers. Samples were preserved by adding a solution of acetic acid, ascorbic acid, and EDTA, snap-frozen in liquid nitrogen and stored at −80 °C until analyzed. Plasma and urinary catechins (EGCG, EGC, ECG, EC) were analyzed by LC-MS following enzymatic hydrolysis and extraction as reported.
Tissue-specific kinetics of each catechin were determined by model-based compartmental analysis using the Windows version of Simulation, Analysis, and Modeling software (WinSAAM version 3.0.8). The observed data were expressed as a fraction of the ingested dose, i.e., the mass of catechins measured in plasma/urine at specified times divided by the mass of the ingested catechin dose. […]

[4] = in vivo; cited from earlier work
[5] = system: nonalcoholic steatohepatitis; set-up: method as in PMID 32688217; conditions: obese mice, equal doses in diet; cited from earlier work
[6] = alkaline pH; cited from earlier work
[7] = in vitro; cited from earlier work
[8] = 0.5 g GTE confection, n = 19, two-way ANOVA with Tukey's post-hoc
[9] = fractional catabolic rate from plasma, not statistically significant

fractional transfer rate from the upper gastrointestinal tract to the small intestine ([3]; compared with other catechins): faster
mean FCR higher in females compared with males [3, 9]: 5%
Molecule: O=C(O[C@@H]1Cc2c(O)cc(O)cc2O[C@@H]1c1ccc(O)c(O)c1)c1cc(O)c(O)c(O)c1 [ECG, epicatechin gallate]
basal-to-apical transport of catechins, rank order ([2]; Caco-2 cell model): EC > EGC > ECG ≈ EGCG
fractional catabolic rate (FCR), fraction of compound lost irreversibly from plasma per min, rank order [3, 8]: EGC > EGCG = EC > ECG
plasma residence time, rank order [3, 8]: ECG > EC = EGCG > EGC
fractional transfer from the small intestine to the liver ([3]; ECG compared with EC): slower
fractional transfer from kidneys to urine ([3]; ECG vs. EC): slower
fractional transfer rate from plasma to extravascular tissues, rank order ([3]; n = 19): EGC > EGCG > EC > ECG
fractional transfer rate from plasma to kidneys, rank order ([3]; n = 19): EGC = EC > EGCG = ECG
fractional transfer rate from the liver to plasma, rank order ([3]; n = 19): EGC > EC > EGCG = ECG
anti-inflammatory activity compared with EGCG [1]: superior

mean FCR higher in females compared with males [3, 9]: 33%
Molecule: O=C(O[C@@H]1Cc2c(O)cc(O)cc2O[C@@H]1c1cc(O)c(O)c(O)c1)c1cc(O)c(O)c(O)c1 [EGCG, epigallocatechin gallate]
basal-to-apical transport of catechins, rank order ([2]; Caco-2 cell model): EC > EGC > ECG ≈ EGCG
loss by degradation in alkaline environment of the small intestine compared with ECG and EC [6]: greater loss
fractional catabolic rate (FCR), fraction of compound lost irreversibly from plasma per min, rank order [3, 8]: EGC > EGCG = EC > ECG
plasma residence time, rank order [3, 8]: ECG > EC = EGCG > EGC
fractional transfer rate from plasma to extravascular tissues, rank order ([3]; n = 19): EGC > EGCG > EC > ECG
fractional transfer rate from plasma to kidneys, rank order ([3]; n = 19): EGC = EC > EGCG = ECG
fractional transfer rate from the liver to plasma, rank order ([3]; n = 19): EGC > EC > EGCG = ECG
alleviating pathological evidence of nonalcoholic steatohepatitis [5]: more potent
free radical scavenging activity [7]: superior
fraction present in human plasma following oral administration of green tea [4]: 0.16%

Second part, the molecule before the results:

Molecule: catechin gallate [reference compound]
anti-inflammatory activity compared with EGCG [1]: superior

Molecule: Oc1cc(O)c2c(c1)O[C@H](c1cc(O)c(O)c(O)c1)[C@H](O)C2 [EGC, epigallocatechin]
basal-to-apical transport of catechins, rank order [2]: EC > EGC > ECG ≈ EGCG
mean FCR higher in females compared with males ([3]; both, human, in vivo): 13%
fractional catabolic rate (FCR), fraction of compound lost irreversibly from plasma per min, rank order ([3]; in vivo): EGC > EGCG = EC > ECG
fractional transfer rate from plasma to extravascular tissues, rank order ([3]; in vivo): EGC > EGCG > EC > ECG
fractional transfer rate from plasma to kidneys, rank order ([3]; in vivo): EGC = EC > EGCG = ECG
fractional transfer rate from the liver to plasma, rank order ([3]; in vivo): EGC > EC > EGCG = ECG
plasma residence time, rank order ([3]; in vivo): ECG > EC = EGCG > EGC
fraction present in human plasma following oral administration of green tea [4]: 0.58%

Molecule: Oc1cc(O)c2c(c1)OC(c1ccc(O)c(O)c1)C(O)C2 (single isomer, unassigned; (+)) [catechin, (+)-catechin]
alleviating pathological evidence of nonalcoholic steatohepatitis [5]: effective

Molecule: Oc1cc(O)c2c(c1)O[C@H](c1ccc(O)c(O)c1)[C@H](O)C2 [EC, epicatechin]
basal-to-apical transport of catechins, rank order ([2]; Caco-2 cell model): EC > EGC > ECG ≈ EGCG
fractional catabolic rate (FCR), fraction of compound lost irreversibly from plasma per min, rank order [3, 8]: EGC > EGCG = EC > ECG
plasma residence time, rank order [3, 8]: ECG > EC = EGCG > EGC
mean FCR higher in females compared with males [3, 9]: 9%
fractional transfer rate from plasma to extravascular tissues, rank order ([3]; n = 19): EGC > EGCG > EC > ECG
fractional transfer rate from plasma to kidneys, rank order ([3]; n = 19): EGC = EC > EGCG = ECG
fractional transfer rate from the liver to plasma, rank order ([3]; n = 19): EGC > EC > EGCG = ECG
fraction present in human plasma following oral administration of green tea [4]: 1.1%
